Consider 33 compounds from the METLIN SMRT retention time set (Domingo-Almenara et al. 2019).

Structures are written as SMILES.

This data set is described as follows: gradient 5% acetonitrile 3 min, to 50% in 2 min, to 85% in 15 min, held 3 min, 100 µL/min. Conditions: column: Zorbax Extend-C18 2.1 x 50 mm; eluents: water / acetonitrile, 0.1% formic acid. An outline of the steps: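 The mobile phases were water and acetonitrile, each with 0.1% formic acid, pumped at 100 μL/min through a Zorbax Extend-C18 column (2.1 × 50 mm, 1.8 μm). Pure standards were injected as mixtures of ~100 molecules and detected by a quadrupole time-of-flight mass spectrometer in positive and negative ionization mode. Retention time came from computationally picked adduct peaks, each inspected by hand.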
`CCCCOc1c(C(=O)c2c(F)cc(C)cc2F)cnc2[nH]ncc12` registered an RP-LC retention time of 916 s. In the case of `O=C(NC(c1ccccc1)c1nnc(N2CCOCC2)o1)c1cccc(F)c1` (stereo not drawn), the RP-LC retention time amounted to 758 s. `O=C(NCc1csc(C2CCCN(C(=O)C3CC3)C2)n1)C1CCC1` (stereo not drawn) came in with an RP-LC retention time of 667 s. `Cn1c(N2CCN(C(=O)c3ccc(F)c(F)c3)CC2)cc(=O)n(C)c1=O` came in with an RP-LC retention time of 656 s. In the case of `COc1cc(NC(=O)[C@@H]2[C@H](c3cc(OC)c(OC)c(OC)c3)c3cc4c(cc3[C@H](O)[C@H]2CO)OCO4)cc(OC)c1`, the RP-LC retention time is 767 s. Regarding `CC(C)Cc1ccc(S(=O)(=O)N(CC(=O)N2CCNCC2)CC2CCCO2)cc1` (stereo not drawn), the RP-LC retention time stood at 703 s. Compound `CCSC1=NCCN1C(=O)C(C)(C)Oc1ccc(Cl)cc1` displayed an RP-LC retention time of 770 s. In the case of `O=C(O)C1CCN(C(=O)CCc2c[nH]c3ccccc23)CC1`, the RP-LC retention time is 662 s. For the compound `Cn1c(C2CCN(C(=O)Nc3cccc(Br)c3)CC2)cc(=O)n2nccc12`, the RP-LC retention time was 714 s. In turn, `Cc1ccc(Nc2c(-c3cc(Br)ccc3F)nc3ccccn23)cc1` had an RP-LC retention time of 801 s.

In the case of `CCCn1ncc(N2CCC(C(=O)N3CCC(C)CC3)CC2)cc1=O`, the RP-LC retention time was determined as 734 s. For the compound `Cc1c(F)cccc1NC(=O)N1CCN(C2=CC3=NC(C)CN3C=N2)CC1` (stereo not drawn), the RP-LC retention time worked out at 649 s. The compound `CCc1nc(-c2cc(S(=O)(=O)NCC(=O)NC3CCCc4ccccc43)c(C)s2)no1` (stereo not drawn) returned an RP-LC retention time of 998 s.

For `Cc1cc(N2CCN(C(=O)c3cc4ccccc4o3)CC2)ncn1`, the RP-LC retention time was 559 s. Take `O=C(NCc1cccnc1)C1CCCN(C(=O)c2cc3ccsc3n2Cc2cccc(Cl)c2)C1` (stereo not drawn): the RP-LC retention time is 711 s. In the case of `Cc1cccc(NC(=O)C2(C)CCCCC(=O)N2)c1` (stereo not drawn), the RP-LC retention time came out at 695 s. In turn, `CCCc1noc(-c2ccnc(-n3ncc(C(=O)N4CCN(CC)CC4)c3C)c2)n1` registered an RP-LC retention time of 643 s. As for `CCCc1noc(-c2ccnc(-n3cnc(C(=O)N4CCSCC4)c3)c2)n1`, the RP-LC retention time worked out at 873 s.

Take `COc1ccc(-c2cc(N3CCN(C(=O)NCC(C)C)CC3)ncn2)cc1OC`: the RP-LC retention time is 623 s.

Take `Cn1nc(-c2nc(-c3ccccc3F)no2)c2c1CCN(C(=O)NC(C)(C)C)C2`: the RP-LC retention time stood at 594 s. Consider `CC(C)(C)C(=O)N1CCC(C(=O)N[C@@H]2CCCC[C@H]2NC(=O)c2ccc(F)cc2)CC1`, for which the RP-LC retention time was 698 s. Compound `Cc1cc(N2CCC(NC(=O)Nc3ccc(C)c(F)c3)C2=O)ccc1F` (stereo not drawn) registered an RP-LC retention time of 900 s. For `CCCS(=O)(=O)N1CC(=O)N(c2ccc(F)cc2C)C(C)(C(=O)NC2CCCCCC2)C1` (stereo not drawn), the RP-LC retention time came out at 988 s. With `CCOC(=O)c1nnn(-c2ccccc2OC)c1C(=O)OCC`, the RP-LC retention time turned out to be 917 s. The compound `COc1ccc(C2(C(=O)N3CCC(n4c(C)cnc4C4CCC4)CC3)CC2)cc1` yielded an RP-LC retention time of 662 s.

Consider `CC(C)OCCCNC(=O)CCc1c(-c2ccc(F)cc2)nc2ccccn12`, for which the RP-LC retention time was 622 s. Under `COc1ccc(-c2nc(COc3cc(C(F)(F)F)c4c(C)nn(C)c4n3)c(C)o2)cc1OC` stands 1190 s.

The compound `CCN(C(C)=O)c1nc(-c2ccc(Br)cc2)cs1` displayed an RP-LC retention time of 1170 s.

The compound `O=C(c1ccsc1)N1CCc2cc(-c3csc(C4CC4)n3)ccc21` yielded an RP-LC retention time of 1120 s.

With `CCOc1ccc(OCC)c(NC(=O)CSc2nccnc2Oc2ccccc2)c1`, the RP-LC retention time is 1190 s.

The compound `O=C(Cn1cccc1-c1nnc(C2CC2)o1)NCCc1ccc(Cl)cc1` yielded an RP-LC retention time of 862 s. The figure for `CCCOc1nc2ccccc2nc1N1CCCC(C(=O)NCc2ccc(C)cc2)C1` (stereo not drawn) is 1240 s; for `CN1C(=O)CSc2ccc(NC(=O)N3CCN(c4ccccn4)CC3)cc21` it is 579 s.
